The source of these data is ChEMBL document CHEMBL1148695, “Synthesis and biological activity of nociceptin/orphanin FQ analogues substituted in position 7 or 11 with Calpha,alpha-dialkylated amino acids” (Bioorg Med Chem, 2007).

“And” between values parts separate entries of the source, which are not always exact repeats. Identical values can stand only once.

Assay [1] concerns the target Nociceptin receptor (Mus musculus, UniProt P35377). In words: (§1) Agonist activity at NOP receptor in Swiss mouse vas deferens assessed as effect on electrically stimulated contractions. The class given is functional, tissue-based.
Assay [2] addresses Nociceptin receptor (Mus musculus) (UniProt P35377). Described as §1. The class given is functional, tissue-based.

Nociceptin receptor (Mus musculus), sequence (P35377 whole entry): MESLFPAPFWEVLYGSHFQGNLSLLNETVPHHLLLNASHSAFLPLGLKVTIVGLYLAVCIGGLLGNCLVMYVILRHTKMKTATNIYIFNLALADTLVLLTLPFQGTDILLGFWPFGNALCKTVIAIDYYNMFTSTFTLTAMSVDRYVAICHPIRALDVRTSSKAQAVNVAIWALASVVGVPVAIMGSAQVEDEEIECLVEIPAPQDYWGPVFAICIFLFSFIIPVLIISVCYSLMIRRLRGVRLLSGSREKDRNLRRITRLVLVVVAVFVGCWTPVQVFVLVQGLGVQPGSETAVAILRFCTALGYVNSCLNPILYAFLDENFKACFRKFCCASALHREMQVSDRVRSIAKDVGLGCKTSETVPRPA
Nociceptin receptor, sequence (P35377 whole entry): as above

For `CC(C)C[C@H](NC(=O)[C@H](CCCCN)NC(=O)[C@H](CCCNC(=N)N)NC(=O)C(C)(NC(=O)[C@H](CO)NC(=O)[C@H](CCCCN)NC(=O)[C@H](CCCNC(=N)N)NC(=O)[C@H](C)NC(=O)CNC(=O)[C@@H](NC(=O)[C@H](Cc1ccccc1)NC(=O)CNC(=O)CNC(=O)[C@@H](N)Cc1ccccc1)[C@@H](C)O)C(C)C)C(=O)N[C@@H](C)C(=O)N[C@@H](CC(N)=O)C(=O)N[C@@H](CCC(N)=O)C(N)=O` (some centres not stated) [listing 1 of 3 here], the EC50 in assay [1] is 19.5 nM.

As to `CC(C)C[C@H](NC(=O)[C@H](CCCCN)NC(=O)[C@H](CCCNC(=N)N)NC(=O)[C@H](C)NC(=O)[C@H](CO)NC(=O)[C@H](CCCCN)NC(=O)[C@H](CCCNC(=N)N)NC(=O)C(C)(CC(C)C)NC(=O)CNC(=O)[C@@H](NC(=O)[C@H](Cc1ccccc1)NC(=O)CNC(=O)CNC(=O)[C@@H](N)Cc1ccccc1)[C@H](C)O)C(=O)N[C@@H](C)C(=O)N[C@@H](CC(N)=O)C(=O)N[C@@H](CCC(N)=O)C(N)=O` (some centres not stated), the Emax in assay [2] is 84% and 95%.

In the case of `CC[C@](C)(NC(=O)CNC(=O)[C@@H](NC(=O)[C@H](Cc1ccccc1)NC(=O)CNC(=O)CNC(=O)[C@@H](N)Cc1ccccc1)[C@@H](C)O)C(=O)N[C@@H](CCCNC(=N)N)C(=O)N[C@@H](CCCCN)C(=O)N[C@@H](CO)C(=O)N[C@@H](C)C(=O)N[C@@H](CCCNC(=N)N)C(=O)N[C@@H](CCCCN)C(=O)N[C@@H](CC(C)C)C(=O)N[C@@H](C)C(=O)N[C@@H](CC(N)=O)C(=O)N[C@@H](CCC(N)=O)C(N)=O` [listing 1 of 3 here], the maximal response (Emax) in assay [2] was 91% and 88%.

`CC(C)C[C@H](NC(=O)[C@H](CCCCN)NC(=O)[C@H](CCCNC(=N)N)NC(=O)C1(NC(=O)[C@H](CO)NC(=O)[C@H](CCCCN)NC(=O)[C@H](CCCNC(=N)N)NC(=O)[C@H](C)NC(=O)CNC(=O)[C@@H](NC(=O)[C@H](Cc2ccccc2)NC(=O)CNC(=O)CNC(=O)[C@@H](N)Cc2ccccc2)[C@@H](C)O)CCCCC1)C(=O)N[C@@H](C)C(=O)N[C@@H](CC(N)=O)C(=O)N[C@@H](CCC(N)=O)C(N)=O`: the EC50 in assay [1] is 16.2 nM. Besides, the maximal response (Emax) in assay [2] is 89%.

Take `CC(C)C[C@H](NC(=O)[C@H](CCCCN)NC(=O)[C@H](CCCNC(=N)N)NC(=O)C(C)(CC(C)C)NC(=O)[C@H](CO)NC(=O)[C@H](CCCCN)NC(=O)[C@H](CCCNC(=N)N)NC(=O)[C@H](C)NC(=O)CNC(=O)[C@@H](NC(=O)[C@H](Cc1ccccc1)NC(=O)CNC(=O)CNC(=O)[C@@H](N)Cc1ccccc1)[C@@H](C)O)C(=O)N[C@@H](C)C(=O)N[C@@H](CC(N)=O)C(=O)N[C@@H](CCC(N)=O)C(N)=O` (some centres not stated): in assay [1], the EC50 is 13.5 nM. For the same molecule, the Emax in assay [2] is 91%.

For the molecule `CC(C)C[C@H](NC(=O)[C@H](CCCCN)NC(=O)[C@H](CCCNC(=N)N)NC(=O)[C@H](C)NC(=O)[C@H](CO)NC(=O)[C@H](CCCCN)NC(=O)[C@H](CCCNC(=N)N)NC(=O)C1(NC(=O)CNC(=O)[C@@H](NC(=O)[C@H](Cc2ccccc2)NC(=O)CNC(=O)CNC(=O)[C@@H](N)Cc2ccccc2)[C@@H](C)O)CCCCC1)C(=O)N[C@@H](C)C(=O)N[C@@H](CC(N)=O)C(=O)N[C@@H](CCC(N)=O)C(N)=O`, the EC50 in assay [1] is 63.1 nM. Also, the Emax in assay [2] stood at 87%.

Consider `CC(C)C[C@H](NC(=O)[C@H](CCCCN)NC(=O)[C@H](CCCNC(=N)N)NC(=O)[C@H](C)NC(=O)[C@H](CO)NC(=O)[C@H](CCCCN)NC(=O)[C@H](CCCNC(=N)N)NC(=O)C(C)(NC(=O)CNC(=O)[C@@H](NC(=O)[C@H](Cc1ccccc1)NC(=O)CNC(=O)CNC(=O)[C@@H](N)Cc1ccccc1)[C@@H](C)O)C(C)C)C(=O)N[C@@H](C)C(=O)N[C@@H](CC(N)=O)C(=O)N[C@@H](CCC(N)=O)C(N)=O` (some centres not stated) [listing 1 of 2 here], for which, in assay [1], the 50% effective concentration (EC50) is 55 nM.

Turning to `CCCC(CCC)(NC(=O)CNC(=O)[C@@H](NC(=O)[C@H](Cc1ccccc1)NC(=O)CNC(=O)CNC(=O)[C@@H](N)Cc1ccccc1)[C@@H](C)O)C(=O)N[C@@H](CCCNC(=N)N)C(=O)N[C@@H](CCCCN)C(=O)N[C@@H](CO)C(=O)N[C@@H](C)C(=O)N[C@@H](CCCNC(=N)N)C(=O)N[C@@H](CCCCN)C(=O)N[C@@H](CC(C)C)C(=O)N[C@@H](C)C(=O)N[C@@H](CC(N)=O)C(=O)N[C@@H](CCC(N)=O)C(N)=O`, the EC50 in assay [1] was 12.6 nM. Moreover, in assay [2], the maximal effect (Emax) came to 91%.

In the case of `CCC(CC)(NC(=O)[C@H](CO)NC(=O)[C@H](CCCCN)NC(=O)[C@H](CCCNC(=N)N)NC(=O)[C@H](C)NC(=O)CNC(=O)[C@@H](NC(=O)[C@H](Cc1ccccc1)NC(=O)CNC(=O)CNC(=O)[C@@H](N)Cc1ccccc1)[C@@H](C)O)C(=O)N[C@@H](CCCNC(=N)N)C(=O)N[C@@H](CCCCN)C(=O)N[C@@H](CC(C)C)C(=O)N[C@@H](C)C(=O)N[C@@H](CC(N)=O)C(=O)N[C@@H](CCC(N)=O)C(N)=O`, the EC50 in assay [1] was 17.8 nM. The Emax in assay [2] is 87%.

On to `CC(C)C[C@H](NC(=O)[C@H](CCCCN)NC(=O)[C@H](CCCNC(=N)N)NC(=O)[C@H](C)NC(=O)[C@H](CO)NC(=O)[C@H](CCCCN)NC(=O)[C@H](CCCNC(=N)N)NC(=O)C(C)(C)NC(=O)CNC(=O)[C@@H](NC(=O)[C@H](Cc1ccccc1)NC(=O)CNC(=O)CNC(=O)[C@@H](N)Cc1ccccc1)[C@@H](C)O)C(=O)N[C@@H](C)C(=O)N[C@@H](CC(N)=O)C(=O)N[C@@H](CCC(N)=O)C(N)=O`, for which, in assay [1], the EC50 was 4.47 nM. Besides, in assay [2], the maximal effect (Emax) came to 96%.

Take `CC(C)C[C@H](NC(=O)[C@H](CCCCN)NC(=O)[C@H](CCCNC(=N)N)NC(=O)C(C)(NC(=O)[C@H](CO)NC(=O)[C@H](CCCCN)NC(=O)[C@H](CCCNC(=N)N)NC(=O)[C@H](C)NC(=O)CNC(=O)[C@@H](NC(=O)[C@H](Cc1ccccc1)NC(=O)CNC(=O)CNC(=O)[C@@H](N)Cc1ccccc1)[C@@H](C)O)C(C)C)C(=O)N[C@@H](C)C(=O)N[C@@H](CC(N)=O)C(=O)N[C@@H](CCC(N)=O)C(N)=O` (some centres not stated) [listing 2 of 3 here]: the Emax in assay [2] is 93% and 86%.

As to `CCC(CC)(NC(=O)CNC(=O)[C@@H](NC(=O)[C@H](Cc1ccccc1)NC(=O)CNC(=O)CNC(=O)[C@@H](N)Cc1ccccc1)[C@@H](C)O)C(=O)N[C@@H](CCCNC(=N)N)C(=O)N[C@@H](CCCCN)C(=O)N[C@@H](CO)C(=O)N[C@@H](C)C(=O)N[C@@H](CCCNC(=N)N)C(=O)N[C@@H](CCCCN)C(=O)N[C@@H](CC(C)C)C(=O)N[C@@H](C)C(=O)N[C@@H](CC(N)=O)C(=O)N[C@@H](CCC(N)=O)C(N)=O`, in assay [1], the EC50 is 12.3 nM. Also, in assay [2], the maximal response (Emax) came to 89%.

Consider `CCC(C)(NC(=O)[C@H](CO)NC(=O)[C@H](CCCCN)NC(=O)[C@H](CCCNC(=N)N)NC(=O)[C@H](C)NC(=O)CNC(=O)[C@@H](NC(=O)[C@H](Cc1ccccc1)NC(=O)CNC(=O)CNC(=O)[C@@H](N)Cc1ccccc1)[C@@H](C)O)C(=O)N[C@@H](CCCNC(=N)N)C(=O)N[C@@H](CCCCN)C(=O)N[C@@H](CC(C)C)C(=O)N[C@@H](C)C(=O)N[C@@H](CC(N)=O)C(=O)N[C@@H](CCC(N)=O)C(N)=O` (some centres not stated), for which, in assay [2], the Emax was 90%.

Turning to `CC[C@](C)(NC(=O)CNC(=O)[C@@H](NC(=O)[C@H](Cc1ccccc1)NC(=O)CNC(=O)CNC(=O)[C@@H](N)Cc1ccccc1)[C@@H](C)O)C(=O)N[C@@H](CCCNC(=N)N)C(=O)N[C@@H](CCCCN)C(=O)N[C@@H](CO)C(=O)N[C@@H](C)C(=O)N[C@@H](CCCNC(=N)N)C(=O)N[C@@H](CCCCN)C(=O)N[C@@H](CC(C)C)C(=O)N[C@@H](C)C(=O)N[C@@H](CC(N)=O)C(=O)N[C@@H](CCC(N)=O)C(N)=O` [listing 2 of 3 here], the EC50 in assay [1] was 14.8 nM.

With `CC(C)C[C@H](NC(=O)[C@H](CCCCN)NC(=O)[C@H](CCCNC(=N)N)NC(=O)C(C)(NC(=O)[C@H](CO)NC(=O)[C@H](CCCCN)NC(=O)[C@H](CCCNC(=N)N)NC(=O)[C@H](C)NC(=O)CNC(=O)[C@@H](NC(=O)[C@H](Cc1ccccc1)NC(=O)CNC(=O)CNC(=O)[C@@H](N)Cc1ccccc1)[C@@H](C)O)C(C)C)C(=O)N[C@@H](C)C(=O)N[C@@H](CC(N)=O)C(=O)N[C@@H](CCC(N)=O)C(N)=O` (some centres not stated) [listing 3 of 3 here], the EC50 in assay [1] was 14.8 nM.

As for `CC(C)C[C@H](NC(=O)[C@H](CCCCN)NC(=O)[C@H](CCCNC(=N)N)NC(=O)[C@H](C)NC(=O)[C@H](CO)NC(=O)[C@H](CCCCN)NC(=O)[C@H](CCCNC(=N)N)NC(=O)C(C)(CC(C)C)NC(=O)CNC(=O)[C@@H](NC(=O)[C@H](Cc1ccccc1)NC(=O)CNC(=O)CNC(=O)[C@@H](N)Cc1ccccc1)[C@@H](C)O)C(=O)N[C@@H](C)C(=O)N[C@@H](CC(N)=O)C(=O)N[C@@H](CCC(N)=O)C(N)=O` (some centres not stated) [listing 1 of 2 here], in assay [1], the EC50 is 46.8 nM.

Consider `CC(C)C[C@H](NC(=O)[C@H](CCCCN)NC(=O)[C@H](CCCNC(=N)N)NC(=O)[C@H](C)NC(=O)[C@H](CO)NC(=O)[C@H](CCCCN)NC(=O)[C@H](CCCNC(=N)N)NC(=O)C(C)(NC(=O)CNC(=O)[C@@H](NC(=O)[C@H](Cc1ccccc1)NC(=O)CNC(=O)CNC(=O)[C@@H](N)Cc1ccccc1)[C@@H](C)O)C(C)C)C(=O)N[C@@H](C)C(=O)N[C@@H](CC(N)=O)C(=O)N[C@@H](CCC(N)=O)C(N)=O` (some centres not stated) [listing 2 of 2 here], for which, in assay [1], the concentration for a half-maximal effect (EC50) is 27.5 nM.

As for `CC(C)C[C@H](NC(=O)[C@H](CCCCN)NC(=O)[C@H](CCCNC(=N)N)NC(=O)[C@H](C)NC(=O)[C@H](CO)NC(=O)[C@H](CCCCN)NC(=O)[C@H](CCCNC(=N)N)NC(=O)C(C)(CC(C)C)NC(=O)CNC(=O)[C@@H](NC(=O)[C@H](Cc1ccccc1)NC(=O)CNC(=O)CNC(=O)[C@@H](N)Cc1ccccc1)[C@@H](C)O)C(=O)N[C@@H](C)C(=O)N[C@@H](CC(N)=O)C(=O)N[C@@H](CCC(N)=O)C(N)=O` (some centres not stated) [listing 2 of 2 here], the EC50 in assay [1] is 75.9 nM.

In the case of `CC(C)C[C@H](NC(=O)[C@H](CCCCN)NC(=O)[C@H](CCCNC(=N)N)NC(=O)[C@H](C)NC(=O)[C@H](CO)NC(=O)[C@H](CCCCN)NC(=O)[C@H](CCCNC(=N)N)NC(=O)C(C)(NC(=O)CNC(=O)[C@@H](NC(=O)[C@H](Cc1ccccc1)NC(=O)CNC(=O)CNC(=O)[C@@H](N)Cc1ccccc1)[C@H](C)O)C(C)C)C(=O)N[C@@H](C)C(=O)N[C@@H](CC(N)=O)C(=O)N[C@@H](CCC(N)=O)C(N)=O` (some centres not stated), in assay [2], the maximal response (Emax) is 88% and 95%.

Consider `CC[C@](C)(NC(=O)CNC(=O)[C@@H](NC(=O)[C@H](Cc1ccccc1)NC(=O)CNC(=O)CNC(=O)[C@@H](N)Cc1ccccc1)[C@@H](C)O)C(=O)N[C@@H](CCCNC(=N)N)C(=O)N[C@@H](CCCCN)C(=O)N[C@@H](CO)C(=O)N[C@@H](C)C(=O)N[C@@H](CCCNC(=N)N)C(=O)N[C@@H](CCCCN)C(=O)N[C@@H](CC(C)C)C(=O)N[C@@H](C)C(=O)N[C@@H](CC(N)=O)C(=O)N[C@@H](CCC(N)=O)C(N)=O` [listing 3 of 3 here], for which, in assay [1], the EC50 is 24 nM.

Usually EC50 stands for the concentration needed to bring the measured effect to its halfway point. The term Emax denotes the size of the effect at its maximum, as opposed to the concentration needed.
